biological target: T1, CCKB receptor (Mus musculus, UniProt P56481); experiment: radioligand binding assay at the CCKB receptor in mouse cortical membranes ([125I]-CCK8S); details: [125I]-CCK8S 200 pM, 150 min at 21±3° C., pH 7.2
T1 construct: The cortex was dissected, weighed and homogenised in 40 ml ice-cold buffer; tissue Charles River (animals); host or cells: cerebral cortex of male CD1 mice, membranes
T1 sequence (P56481 1-453): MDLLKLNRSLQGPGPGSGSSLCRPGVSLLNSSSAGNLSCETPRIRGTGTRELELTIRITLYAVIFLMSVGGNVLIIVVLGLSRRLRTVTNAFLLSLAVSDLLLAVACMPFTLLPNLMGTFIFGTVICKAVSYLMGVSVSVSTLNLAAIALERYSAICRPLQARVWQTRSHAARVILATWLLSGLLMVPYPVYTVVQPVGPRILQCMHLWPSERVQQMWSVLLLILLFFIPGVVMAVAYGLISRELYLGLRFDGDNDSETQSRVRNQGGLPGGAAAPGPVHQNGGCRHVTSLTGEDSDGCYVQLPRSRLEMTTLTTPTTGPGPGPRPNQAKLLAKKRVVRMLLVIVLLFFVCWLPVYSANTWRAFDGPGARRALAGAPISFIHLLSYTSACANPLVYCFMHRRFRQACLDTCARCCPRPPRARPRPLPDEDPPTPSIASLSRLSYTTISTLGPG
Method: The compounds of the examples were tested for binding at the CCKB receptor in mouse cortical membranes by means of a radioligand binding assay. The procedure was as follows:
The whole brains from male mice (CD1 22-25 g; Charles River) were removed and placed in ice-cold buffer (pH7.2@21±3° C.) of the following composition (mM); 10 HEPES, 130 NaCl, 4.7 KCl, 5 MgCl2, 1 EDTA and containing 0.25 g.1^-1 bacitracin. The cortex was dissected, weighed and homogenised in 40 ml ice-cold buffer using a Teflon-in-glass homogeniser. The homogenate was centrifuged at 39,800 g for 20 min at 4° C., the supernatant discarded and the pellet resuspended by homogenisation in fresh buffer. The homogenate was recentrifuged (39,800 g; 20 min @4° C.) and the final pellet was resuspended in HEPES buffer to give a tissue concentration of 2 mg.ml^-1 (original wet weight).
The membranes (400 μl) were incubated for 150 min at 21±3° C. in a final volume of 0.5 ml with HEPES buffer containing [^125 I]-CCK8S (0.05 ml; 200 pM NEN 2200 Ci.mmol^-1) and competing compound. Total and non-specific binding of [^125 I]-CCK8S were defined using 0.05 ml of buffer and 0.05 ml of […] L-365,260, respectively. The assay was terminated by rapid filtration through pre-soaked Whatman GF/B filters using a Brandell Cell harvester. The filters were washed (3×3 ml) with ice-cold 50 mM Tris-HCl (pH7.4@4° C.) and bound radioactivity determined by counting (1 min.) in a gamma-counter.

With `COc1ccc(CN2C(=O)[C@@H](CC34CC5CC(CC(C5)C3)C4)N(C(C)=O)[C@H](C(=O)NCC(=O)O)CC(=O)c3ccccc32)cc1` [Example 75, (3R,5S)-4-acetyl-3-(1-adamantyl)methyl-1-(4-methoxybenzyl)-5-carboxymethylaminocarbonyl-2,7-dioxo-2,3,4,5,6,7-hexahydro-1H-1,4-benzodiazonine] as the molecule, how does the “pKi (Mouse cortex)” value read?
Its value is 5.9.

Which “pKi (Mouse cortex)” value does the source give for “(+/-)-trans-4-acetyl-3-(1-adamantyl)methyl-1-benzyl-5-carboxymethylaminocarbonyl-2,7-dioxo-9-methyl-2,3,4,5,6,7-hexahydro-1H-1,4-benzodiazonine [Example 70]” here?
The value was 6.9.

How did the “pKi (Mouse cortex)” value turn out when `CC(=O)N1[C@H](CC23CC4CC(CC(C4)C2)C3)C(=O)N(Cc2ccccc2F)c2ccccc2C(=O)C[C@H]1C(=O)NCc1nn[nH]n1` [Example 68, (3R,5S)-4-acetyl-3-(1-adamantyl)methyl-1-(2-fluorobenzyl)-5-(5-tetrazolo)methylaminocarbonyl-2,7-dioxo-2,3,4,5,6,7-hexahydro-1H-1,4-benzodiazonine] was run?
The value was 6.8.

With `CC1CCN(C(=O)Nc2cccc(C(=O)O)c2)CC(=O)N(Cc2ccccc2)c2ccccc21` (centres unmarked) [Example 48, 1-benzyl-7-methyl-4-(3-carboxyphenyl)carbamyl-2-oxo-2,3,4,5,6,7-hexahydro-1H-1,4-benzodiazonine] as the molecule, how does the “pKi (Mouse cortex)” value read?
The value was 4.8.

same assay, conditions: [125I]-CCK8S 200 pM, 150 min at 21±3° C., pH 7.2, read-out: pKi (Mouse cortex) (converted)

How did the Ki turn out when `CC(=O)N1[C@H](CC23CC4CC(CC(C4)C2)C3)C(=O)N(Cc2ccccc2F)c2ccccc2C(=O)C[C@H]1C(=O)N[C@@H](C)C(=O)NS(C)(=O)=O` [Example 66, (3R,5S)-4-acetyl-3-(1-adamantyl)methyl-1-(2-fluorobenzyl)-5-[(1S)-methanesulphonamidocarboxy]ethylaminocarbonyl-2,7-dioxo-2,3,4,5,6,7-hexahydro-1H-1,4-benzodiazonine] was run?
Its Ki is 501 nM.

For `Cc1cccc(NC(=O)N2CCCc3ccccc3N(CC(=O)OC(C)(C)C)C(=O)C2)c1` [Example 49, 1-tert-butyloxycarbonylmethyl-4-(3-methylphenyl)carbamyl-2-oxo-2,3,4,5,6,7-hexahydro-1H-1,4-benzodiazonine], which Ki is on record?
The Ki was 6310 nM.

With `CC(=O)N1[C@H](CC23CC4CC(CC(C4)C2)C3)C(=O)N(Cc2cccc(Cl)c2)c2ccccc2C(=O)C[C@H]1C(=O)NCC(=O)O` [Example 62, (3R,5S)-4-acetyl-3-(1-adamantyl)methyl-1-(3-chlorobenzyl)-5-carboxymethylaminocarbonyl-2,7-dioxo-2,3,4,5,6,7-hexahydro-1H-1,4-benzodiazonine] as the molecule, how does the Ki read?
Its Ki is 398 nM.

How did the Ki turn out when `COc1ccc2c(c1)C(=O)C[C@@H](C(=O)NCC(=O)O)N(C(C)=O)[C@H](CC13CC4CC(CC(C4)C1)C3)C(=O)N2Cc1ccccc1` (relative stereo) [Example 69, (+/-)-trans-4-acetyl-3-(1-adamantyl)methyl-1-benzyl-5-carboxymethylaminocarbonyl-2,7-dioxo-9-methoxy-2,3,4,5,6,7-hexahydro-1H-1,4-benzodiazonine] was run?
The Ki was 126 nM.

For `CC(=O)N1[C@H](CC23CC4CC(CC(C4)C2)C3)C(=O)N(Cc2ccccc2F)c2ccccc2C(=O)C[C@H]1C(=O)NCC(=O)NS(C)(=O)=O` [Example 65, (3R,5S)-4-acetyl-3-(1-adamantyl)methyl-1-(2-fluorobenzyl)-5-methanesulphonamidocarboxymethylaminocarbonyl-2,7-dioxo-2,3,4,5,6,7-hexahydro-1H-1,4-benzodiazonine], which Ki is on record?
The Ki was 398 nM.

How did the Ki turn out when `CC(=O)N1[C@@H](C(=O)NCC(=O)O)CC(=O)c2ccccc2N(Cc2ccccc2F)C(=O)[C@@H]1CC12CC3CC(CC(C3)C1)C2` [Example 73, (3S ,5R)-4-acetyl-3-(1-adamantyl)methyl-1-(2-fluorobenzyl)-5-carboxymethylaminocarbonyl-2,7-dioxo-2,3,4,5,6,7-hexahydro-1H-1,4-benzodiazonine] was run?
Its Ki is 2510 nM.

For `CC(=O)N1[C@H](CC23CC4CC(CC(C4)C2)C3)C(=O)N(Cc2cccc(C)c2)c2ccccc2C(=O)C[C@H]1C(=O)NCC(=O)O` [Example 71, (3R,5S)-4-acetyl-3-(1-adamantyl)methyl-1-(3-methylbenzyl)-5-carboxymethylaninocarbonyl-2,7-dioxo-2,3,4,5,6,7-hexahydro-1H-1,4-benzodiazonine], which Ki is on record?
The Ki was 1000 nM.

`CC(=O)N1[C@H](CC23CC4CC(CC(C4)C2)C3)C(=O)N(Cc2ccc(C)cc2)c2ccccc2C(=O)C[C@H]1C(=O)NCC(=O)O` [Example 72, (3R,5S)-4-acetyl-3-(1-adamantyl)methyl-1-(4-methylbenzyl)-5-carboxymethylaminocarbonyl-2,7-dioxo-2,3,4,5,6,7-hexahydro-1H-1,4-benzodiazonine] was tested. Which Ki did it give?
The Ki was 631 nM.

How did the Ki turn out when `CC(=O)N1[C@H](CC23CC4CC(CC(C4)C2)C3)C(=O)N(Cc2ccccc2C)c2ccccc2C(=O)C[C@H]1C(=O)NCC(=O)O` [Example 74, (3R,5S)-4-acetyl-3-(1-adamantyl)methyl-1-(2-methylbenzyl)-5-carboxymethylaminocarbonyl-2,7-dioxo-2,3,4,5,6,7-hexahydro-1H-1,4-benzodiazonine] was run?
Its Ki is 158 nM.

Which Ki does the source give for `CC(=O)N1[C@H](CC23CC4CC(CC(C4)C2)C3)C(=O)N(Cc2ccccc2)c2ccccc2C(=O)C[C@H]1C(=O)NCc1nn[nH]n1` [Example 67, (3R,5S)-4-acetyl-3-(1-adamantyl)methyl-1-benzyl-5-tetrazolomethylaminocarbonyl-2,7-dioxo-2,3,4,5,6,7-hexahydro-1H-1,4-benzodiazonine] here?
The Ki was 158 nM.

For `Cc1cccc(NC(=O)N2CCCc3ccccc3N(Cc3ccccc3)C(=O)C2)c1` [Example 54, 1-benzyl-4-(3-methylphenyl)carbamyl-2-oxo-2,3,4,5,6,7-hexahydro-1H-1,4-benzodiazonine], which Ki is on record?
Its Ki is 3980 nM.

With `CC1CCN(C(=O)Nc2cc(C(=O)O)cc(C(=O)O)c2)CC(=O)N(Cc2ccccc2)c2ccccc21` (centres unmarked) [Example 47, 1-benzyl-7-methyl-4-(3,5-dicarboxyphenyl)carbamyl-2-oxo-2,3,4,5,6,7-hexahydro-1H-1,4-benzodiazonine] as the molecule, how does the Ki read?
The Ki was 6310 nM.

biological target: T2, CCKA (Cavia porcellus, UniProt Q63931); experiment: CCKA binding assay, guinea pig pancreas membranes ([125I]-CCK8(S)); details: [125I]-CCK8(S) 200 pM, 0.375 μM PD134,308, 150 min at 21±3° C., pH 7.2, read-out: pKi (Guinea pig pancreas) (converted)
T2 construct: The pancreatata were removed from male guinea-pigs; from tissue; host or cells: pancreas of male Dunkin Hartley guinea pigs, membranes
T2 sequence (Q63931 1-430): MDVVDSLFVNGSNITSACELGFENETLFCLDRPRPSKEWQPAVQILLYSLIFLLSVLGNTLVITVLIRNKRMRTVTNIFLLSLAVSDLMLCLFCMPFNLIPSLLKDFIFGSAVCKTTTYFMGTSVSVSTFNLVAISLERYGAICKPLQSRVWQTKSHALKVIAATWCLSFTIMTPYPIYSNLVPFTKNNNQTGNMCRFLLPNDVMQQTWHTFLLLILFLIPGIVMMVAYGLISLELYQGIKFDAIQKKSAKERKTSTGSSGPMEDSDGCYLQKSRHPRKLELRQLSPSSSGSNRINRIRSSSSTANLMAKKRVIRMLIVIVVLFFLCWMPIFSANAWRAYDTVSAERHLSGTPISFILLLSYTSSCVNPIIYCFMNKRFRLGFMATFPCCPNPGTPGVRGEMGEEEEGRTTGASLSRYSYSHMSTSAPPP
Method: The compounds of the examples were also tested in a CCKA binding assay as follows:
The pancreatata were removed from male guinea-pigs (200-300 g; Dunkin Hartley) and placed in ice-cold HEPES buffer (pH 7.2@21±3° C.). The pancreatata were homogenised in 40 ml ice-cold HEPES buffer using a polytron (Brinkmann, PT10, setting 10) 4×1 second. The homogenate was centrifuged at 39,800 g for 15 min at 4° C. The supernatant was discarded and the pellet re-suspended using a Teflon-in-glass homogeniser in 20 volumes of fresh buffer and re-centrifuged as above. The final pellet was re-suspended using a Teflon-in-glass homogeniser to a tissue concentration of 1 mg.ml^-1 (original wet weight), and filtered through 500 μm pore-size Nytex mesh.
The membranes (400 μl; containing 0.375 μM PD134,308) were incubated for 150 minutes at 21±3° C. in a final volume of 0.5 ml with HEPES buffer containing [^125 I]-CCK8 (S) (50 μl; 200 pM) and competing compound. Total and non-specific binding of [^125 I]-CCK8 (S) were defined using 50 μl of buffer and 50 μl of 100 nM L-364,718 respectively. The assay was terminated by rapid filtration through pre-soaked Whatman GF/B filters using a Brandell Cell Harvester. The filters were washed (3×3 ml) with ice-cold 50 mM Tris HCl (pH 7.4 at 4° C.) and bound radioactivity was determined by counting (1 min) in a gamma counter.

Which Ki does the source give for `CCC1CCN(C(=O)c2cc3ccccc3[nH]2)CC(=O)N(Cc2ccccc2)c2ccccc21` (centres unmarked) [Example 53, 1-benzyl-7-ethyl-4-(2-indolecarbonyl)-2-oxo-2,3,4,5,6,7-hexahydro-1H-1,4-benzodiazonine] here?
Its Ki is 631 nM.
